In patent US20260176289A1, “SMALL MOLECULE INHIBITORS OF KRAS PROTEINS” (Merck Sharp & Dohme LLC, priority 2022, published 2026):
Read-outs that look alike come from different tables or passages of the source.

Columns and labels:
KRAS-G12D = KRAS-G12D (Homo sapiens, UniProt P01116, G12D); test: SOS-catalyzed nucleotide exchange assay (Procedure A, TR-FRET), KRAS-G12D; assay type: biochemical; details: nucleotide exchange, read-out: KRAS G12D GNE IC50
Summary of the method: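 Signal ratio (520/495 nm, excitation 340 nm) reports Bodipy-GDP retention on biotinylated RAS after SOS-catalyzed exchange with 3 mM GTP. SOS was 40 nM, except 160 nM for G12V. Room-temperature exchange lasted 60 min (90 min for G12V), following a 60 min compound preincubation.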

[1] = molecular target: KRAS-G12C (C51S/C80L/C118S) (Homo sapiens, UniProt P01116, C118S/C51S/C80L/G12C); test: SOS-catalyzed nucleotide exchange assay (Procedure A, TR-FRET), KRAS-G12C; assay type: biochemical; details: nucleotide exchange, Procedure A; read-out: KRAS G12C GNE IC50
KRAS-G12C (C51S/C80L/C118S), sequence (P01116 with tags, fused parts or gaps isoform P01116-2 G12C/C51S/C80L/C118S): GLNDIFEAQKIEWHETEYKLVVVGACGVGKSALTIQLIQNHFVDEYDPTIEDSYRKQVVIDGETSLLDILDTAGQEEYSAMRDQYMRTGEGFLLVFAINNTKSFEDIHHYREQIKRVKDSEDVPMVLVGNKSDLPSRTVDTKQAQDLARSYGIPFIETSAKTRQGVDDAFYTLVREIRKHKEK
Excerpt: (§1) Procedure for SOS-Catalyzed Nucleotide Exchange Assay for KRAS-WT, G12C/D/V, G13D, HRAS, and NRAS (Procedure A)
(§2) Recombinant KRAS-G12C protein used in this assay has an additional triple mutation (C51S/C80L/C118S). Whereas KRAS-WT, G12D/V, G13D, HRAS and NRAS are in context of their WT protein sequence background. Specifically, the SOS-catalyzed nucleotide exchange assay utilizes a preformed TR-FRET complex containing a specific biotinylated RAS protein (KRAS-WT, G12C/V/D, G13D, HRAS, NRAS; described above) with Bodipy-GDP, and Terbium-streptavidin. Compounds are preincubated with this complex for 60 minutes. Subsequently, recombinant human SOS protein and unlabeled GTP are added to initiate the exchange reaction. Small molecule inhibitors stabilize the Bodipy-GDP complex whereas the untreated protein rapidly exchanges Bodipy-GDP for unlabeled GTP resulting in reduced TR-FRET signal.
(§3) To assemble the preformed TR-FRET complexes, each biotinylated RAS protein is diluted to 2 μM in an EDTA Buffer (20 mM HEPES pH 7.5, 50 mM sodium chloride, 10 mM EDTA, and 0.01% Tween) and incubated at room temperature for one hour. This mixture is then further diluted to 90 nM in an Assay Buffer (20 mM HEPES pH 7.5, 150 mM sodium chloride, 10 mM magnesium chloride, and 0.005% Tween) containing 15 nM of Terbium-Streptavidin (Invitrogen, catalog #PV3577) and 900 nM of Bodipy-GDP (Invitrogen, catalog #G22360) and incubated at room temperature for six hours. It should be noted that this preformed TR-FRET complex for each of the RAS protein were made ahead of time, aliquoted and stored at −80° C. until the day of the experiment.
(§4) Each test compound (10 mM stock in DMSO) is diluted in DMSO to make a final-10-point, 3-fold dilution and is acoustically dispensed into a 384-well assay plate (Corning, catalog #3820) using an Echo 550 (Labcyte). Each well of the assay plate receives 3 μL of a specific 3×RAS preformed TR-FRET complex and 3 μL of Assay Buffer and is incubated at room temperature for 60 minutes (preincubation time). Each well then receives 3 μL of 3×recombinant human SOS protein and GTP (Sigma, G8877) in Assay Buffer and is incubated at room temperature for 30 minutes (G13D), 60 minutes (KRAS WT/G12C/D, H/NRAS) or 90 minutes for G12V. The final reaction in each well of 9 μL consists of 3 mM GTP, specific Ras and SOS proteins in the following concentrations: KRAS-G12C/SOS=3 nM/40 nM, KRAS-WT and G12D/SOS=1 nM/40 nM, KRAS-G12V/SOS=1.25 nM/160 nM. KRAS-G13D/SOS=1.25 nM/0 nM, HRAS and NRAS=1.25 nM/40 nM.
(§5) The time-resolved fluorescence resonance energy transfer (TR-FRET) signal is measured on an Envision (PerkinElmer) plate reader: Excitation filter=340 nm; emission 1=495 nm; emission2=520 nm; dichroic mirror=D400/D505; delay time=[…]. The signal of each well is determined as the ratio of the emission at 520 nm to that at 495 nm. Percent effect of each well is determined after normalization to control wells containing DMSO (no effect) or a saturating concentration of inhibitor (max effect). The apparent effect as a function of compound concentration is fit to a four-parameter logistic equation.

KRAS-G12V = KRAS-G12V (Homo sapiens, UniProt P01116, G12V); test: SOS-catalyzed nucleotide exchange assay (Procedure A, TR-FRET), KRAS-G12V; assay type: biochemical; details: nucleotide exchange, read-out: KRAS G12V GNE IC50
KRAS-G12V, sequence (P01116 with tags, fused parts or gaps isoform P01116-2 G12V): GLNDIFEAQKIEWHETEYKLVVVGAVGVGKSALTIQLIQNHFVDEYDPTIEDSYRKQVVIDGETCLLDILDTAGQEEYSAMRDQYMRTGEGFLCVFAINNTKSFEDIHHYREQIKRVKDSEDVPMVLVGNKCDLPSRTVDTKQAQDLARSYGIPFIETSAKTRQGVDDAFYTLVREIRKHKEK
Summary of the method: (§6)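 Biotinylated RAS (KRAS-G12C carries C51S/C80L/C118S; others WT background) preloaded with Bodipy-GDP plus Tb-streptavidin, preincubated with compound 60 min at RT, then human SOS and 3 mM GTP added. Final RAS/SOS: G12C 3 nM/40 nM, 60 min; WT 1 nM/40 nM, 60 min; G12V 1.25 nM/160 nM, 90 min; NRAS 1.25 nM/40 nM, 60 min. TR-FRET 520/495 ratio normalized to DMSO and saturating inhibitor; 10-point curves fit four-parameter logistic.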

AsPC-1 cells = test: Cellular phospho-ERK assay, AsPC-1 cells (homozygous KRAS-G12D); assay type: cell-based; details: Homo sapiens, ASPC1, 2 h, read-out: AsPC1 pERK IC50
Summary of the method: (§7)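 Inhibition of ERK phosphorylation was determined after treating attached cells with compound for 2 h; top concentration 30 μM, serial 1:3 dilution. Each well's p-ERK:total ERK ratio, read by SureFire Ultra, was fitted with a four-parameter model for IC50.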

KRAS-G13D = KRAS-G13D (Homo sapiens, UniProt P01116, G13D); test: SOS-catalyzed nucleotide exchange assay (Procedure A, TR-FRET), KRAS-G13D; assay type: biochemical; details: nucleotide exchange, Procedure A; read-out: KRAS G13D GNE IC50
KRAS-G13D, sequence (P01116 with tags, fused parts or gaps isoform P01116-2 G13D): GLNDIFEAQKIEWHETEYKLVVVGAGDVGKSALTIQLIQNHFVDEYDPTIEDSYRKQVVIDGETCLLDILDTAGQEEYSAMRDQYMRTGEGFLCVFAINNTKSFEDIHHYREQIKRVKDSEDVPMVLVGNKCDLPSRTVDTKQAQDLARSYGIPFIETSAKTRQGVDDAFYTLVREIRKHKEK
Excerpt: as §1, §2, §3, §4, §5

KRAS-WT = KRAS-WT (Homo sapiens, UniProt P01116); test: SOS-catalyzed nucleotide exchange assay (Procedure A, TR-FRET), KRAS-WT; assay type: biochemical; details: nucleotide exchange, read-out: KRAS WT GNE IC50
KRAS-WT, sequence (P01116 with tags, fused parts or gaps isoform P01116-2): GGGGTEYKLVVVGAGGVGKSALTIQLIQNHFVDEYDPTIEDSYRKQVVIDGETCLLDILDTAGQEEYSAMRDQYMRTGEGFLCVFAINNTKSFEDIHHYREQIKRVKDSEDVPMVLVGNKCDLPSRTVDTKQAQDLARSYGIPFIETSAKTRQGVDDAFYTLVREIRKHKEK
Summary of the method: as §6

MKN-1 cells = test: Cellular phospho-ERK assay, MKN-1 cells (amplified wild-type KRAS); assay type: cell-based; details: Homo sapiens, 2 hours compound incubation, read-out: MKN1 pERK IC50
Summary of the method: as §7

SW620 cells = test: Cellular phospho-ERK assay, SW620 cells (homozygous KRAS-G12V); assay type: cell-based; details: Homo sapiens, SW-620, 2 hours compound incubation, read-out: SW620 pERK IC50
Summary of the method: as §7

KRAS-G12D, sequence (P01116 with tags, fused parts or gaps isoform P01116-2 G12D): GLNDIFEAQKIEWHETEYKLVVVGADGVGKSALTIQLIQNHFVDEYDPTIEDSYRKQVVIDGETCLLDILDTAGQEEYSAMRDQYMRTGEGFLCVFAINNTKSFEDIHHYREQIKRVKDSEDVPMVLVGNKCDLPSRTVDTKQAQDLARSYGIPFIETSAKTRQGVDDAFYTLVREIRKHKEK

SMILES	IC50 (KRAS-G12D) [nM]	IC50 [1] [nM]	IC50 (KRAS-G12V) [nM]	IC50 (AsPC-1 cells; 2 hours compound incubation) [nM]	IC50 (KRAS-G13D) [nM]	IC50 (KRAS-WT) [nM]	IC50 (AsPC-1 cells; KRAS-G12D, 2 hours) [nM]	IC50 (MKN-1 cells) [nM]	IC50 (SW620 cells) [nM]
Cc1cc2[nH]ncc2c(-c2nccc3c2sc2nc(OC[C@@]45CCCN4C[C@H](F)C5)nc(N4CCOC[C@@](C)(O)C4)c23)c1-c1cccs1 [Ex-138, (6S)-4-(2-(((2R, 7aS)-2-fluorotetra-hydro-1H-pyrrolizin-7a(5H)-yl)methoxy)-8-(6-methyl-5-(thio-phen-2-yl)-1H-ind-azol-4-yl)pyrido [4′,3′:4,5]thieno[2,3-d]pyrimidin-4-yl)-6-methyl-1,4-oxaze-pan-6-ol]	150	120	245	703	337	398	–	–	–
Cc1cc2[nH]ncc2c(-c2nccc3c2sc2nc(OC[C@@]45CCCN4C[C@H](F)C5)nc(NC45CC(O)(C4)C5)c23)c1C(F)(F)F [Ex-187, 3-((2-(((2R,7aS)-2-fluoro-tetrahydro-1H-pyrrolizin-7a(5H)-yl)methoxy)-8-(6-methyl-5-(trifluorometh-yl)-1H-indazol-4-yl)pyrido [4′,3′:4,5]thieno[2,3-d]pyrimidin-4-yl)amino)-bicyclo[1.1.1]pentan-1-ol]	390	72.6	170	3570	223	499	–	–	–
C[C@@]1(O)COCCN(c2nc(OC[C@@]34CCCN3C[C@H](F)C4)nc3sc4c(-c5ccc(F)c6sc(N)c(C#N)c56)nccc4c23)C1 [Ex-275, 2-amino-7-fluoro-4-(2-(((2R,7aS)-2-fluoro-tetrahydro-1H-pyrrolizin-7a(5H)-yl)methoxy)-4-((S)-6-hydroxy-6-methyl-1,4-oxazepan-4-yl)pyrido[4′,3′:4,5]thi-eno[2,3-d]pyrimidin-8-yl)benzo[b]thiophene-3-carbonitrile]	1310	2220	2950	–	1200	1520	–	–	–
Cc1nc2[nH]nc(C)c2c(-c2nccc3c4c(N5CCOC[C@@](C)(O)C5)nc(OC[C@@]56CCCN5C[C@H](F)C6)nc4n(C)c23)c1C(F)(F)F [Ex-15, (6S)-4-(8-(3,6-dimethyl-5-(trifluoromethyl)-1H-pyrazolo[3,4-b]pyridin-4-yl)-2-(((2R,7aS)-2-fluorotetrahydro-1H-pyrrolizin-7a(5H)-yl)methoxy)-9-methyl-9H-pyrido[4′,3′:4,5]pyrrolo[2,3-d]pyrimidin-4-yl)-6-methyl-1,4-oxazepan-6-ol]	9040	1970	4930	–	5380	8020	–	–	–

Stronger by IC50 (KRAS-G12D), values ahead:

IC50 (KRAS-G12D) [nM]	IC50 [1] [nM]	IC50 (KRAS-G12V) [nM]	IC50 (AsPC-1 cells; 2 hours compound incubation) [nM]	IC50 (KRAS-G13D) [nM]	IC50 (KRAS-WT) [nM]	IC50 (AsPC-1 cells; KRAS-G12D, 2 hours) [nM]	IC50 (MKN-1 cells) [nM]	IC50 (SW620 cells) [nM]	SMILES
108	52.9	109	330	124	197	–	–	–	C[C@@]1(O)COCCN(c2nc(OC[C@@]34CCCN3C[C@H](F)C4)nc3sc4c(-c5c(-c6cccs6)c(Cl)cc6[nH]ncc56)nccc4c23)C1 [Ex-143, (6S)-4-(8-(6-chloro-5-(thiophen-2-yl)-1H-indazol-4-yl)-2-(((2R,7aS)-2-fluoro-tetrahydro-1H-pyr-rolizin-7a(5H)-yl)-methoxy)pyrido [4′,3′:4,5]thieno[2,3-d]pyrimidin-4-yl)-6-methyl-1,4-oxaze-pan-6-ol]
48.7	43.9	101	–	80.1	167	316	–	–	Cc1cc2[nH]ncc2c(-c2nccn3c2cc2nc(OC[C@]4(CN(C)C)CC4(F)F)nc(N4CCOC[C@@](C)(O)C4)c23)c1C1CC1 [Ex-296, (S)-4-(9-(5-cyclopropyl-6-methyl-1H-indazol-4-yl)-2-(((R)-1-((dimethylamino)meth-yl)-2,2-difluorocyclopropyl)methoxy)pyrazino [1′,2′:1,5]pyrrolo[3,2-d]pyrimidin-4-yl)-6-methyl-1,4-oxazepan-6-ol]
32	17.9	55	–	32.6	101	385	–	–	CC1(O)COCCN(c2nc(OCC34CCCN3CC(F)C4)nc3sc4c(-c5c(C6CC6)c(F)cc6[nH]ncc56)nccc4c23)C1 [Ex-47, (6S)-4-(8-(5-cyclopropyl-6-fluoro-1H-indazol-4-yl)-2-(((2R,7aS)-2-fluorotetrahydro-1H-pyrrolizin-7a(5H)-yl)methoxy)pyrido[4′,3′:4,5]thi-eno[2,3-d]pyrimidin-4-yl)-6-methyl-1,4-oxazepan-6-ol]
7.07	3.57	22.2	24	–	23.5	–	22.9	15.4	CN(C)C[C@@]1(COc2nc(N3CCOC[C@@](C)(O)C3)c3c(n2)sc2c(-c4c(C5CC5)c(C(F)(F)F)cc5[nH]ncc45)nccc23)CC1(F)F [Ex-206, (6S)-4-(8-(5-cyclo-propyl-6-(trifluoro-methyl)-1H-inda-zol-4-yl)-2-(((R)-1-((dimethylamino)-methyl)-2,2-difluorocycloprop-yl)methoxy)pyrido [4′,3′:4,5]thieno [2,3-d]pyrimidin-4-yl)-6-methyl-1,4-oxazepan-6-ol]
6.61	112	9.35	91.4	20.4	27.6	–	–	–	C[C@@]1(O)COCCN(c2nc(OC[C@@]34CCCN3C[C@H](F)C4)nc3sc4c(-c5c(-c6ccco6)c(Cl)cc6[nH]ncc56)nccc4c23)C1 [Ex-148, (6S)-4-(8-(6-chloro-5-(furan-2-yl)-1H-indazol-4-yl)-2-(((2R,7aS)-2-fluoro-tetrahydro-1H-pyr-rolizin-7a(5H)-yl)-methoxy)pyrido [4′,3′:4,5]thieno[2,3-d]pyrimidin-4-yl)-6-methyl-1,4-oxaze-pan-6-ol]
